Measured values as given in patent publication US11186577B2, “Vasopressin receptor antagonists and products and methods related thereto” (BlackThorn Therapeutics, Inc., priority 2017, dated 2021).
pIC50: −log10 of the molar value.

What was measured:
[1] = biological target: human Oxytocin Receptor (hOTR) (Homo sapiens (Human), UniProt P30559); assay: Oxytocin receptor antagonist assay (oxytocin-evoked calcium, FLIPR, CHEM-1-hOTR cells); assay type: cell-based; settings: read-out: OT IC50
Summary of the method: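 Antagonist mode in CHEM-1-hOTR cells loaded with Calcium-6 dye; compounds (10-point, 1:3 series) preincubated 15 min at 37 °C, then oxytocin added at daily-determined EC80 in HBSS/20 mM HEPES with 0.1% BSA. Fluorescence (ex 470-495, em 515-575 nm) followed 3 min on FLIPR^TETRA; concentration-dependent reduction of oxytocin response measured.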

[2] = biological target: human Arginine Vasopressin Receptor 1a (AVPR1a) (Homo sapiens (Human), UniProt P37288); assay: Vasopressin V1A receptor antagonist assay (AVP-evoked calcium, FLIPR, CHO-AVPR1a cells); assay type: cell-based; settings: read-out: V1a IC50
Summary of the method: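 CHO cells expressing human AVPR1a, Calcium-6 dye loaded 60-90 min, preincubated with compound 15 min at 37° C., then challenged with AVP at its daily-determined EC80. FLIPR fluorescence; 10-point 1:3 series from 3 μM, duplicates.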

[3] = system: wild-type (WT) MDCK cells; assay: MDR1-MDCK effective efflux assay (Transwell, 10 μM, 1 hour), wild-type MDCK cells; assay type: in vitro ADME; settings: MDCK
Method: (§1) The MDR1-MDCK effective efflux assay was performed as described in the BioFocus Standard Operating Procedure, ADME-SOP-56. Both wild-type (WT) and MDR1-MDCK cells (Solvo Biotechnology) were seeded onto 24-well Transwell plates at 2.35×10^5 cells per well and used in confluent monolayers after a 3 day culture at 37° C. under 5% CO2. For both cell types, test and control compounds (propranolol, vinblastine) were added (10 μM, 0.1% DMSO final, n=2) to donor compartments of the Transwell plate assembly in assay buffer (Hanks balanced salt solution supplemented with 25 mM HEPES, adjusted to pH 7.4) for both apical to basolateral (A>B) and basolateral to apical (B>A) measurements. Incubations were performed at 37° C., with samples removed from both donor and acceptor chambers at T=0 and 1 hour and compound analysed by mass spectrometry (LC-MS/MS) including an analytical internal standard.
(§2) Where V is the volume of each Transwell compartment (apical 125 basolateral 600 and concentrations are the relative MS responses for compound (normalized to internal standard) in the donor chamber before incubation and acceptor chamber at the end of the incubation. Area=area of cells exposed for drug transfer (0.33 cm2).
(§3) Efflux ratios (Papp B>A/Papp A>B) were calculated for each compound from the mean Papp values in each direction for both wild-type and MDR1-MDCK cells.
(§4) In order to confirm the involvement of MDR1 in any efflux seen, an “effective efflux ratio” (EER) was calculated by comparing compound efflux ratios (ER) in the two cell types, i.e. EER=ER(MDR1−MDCK)/ER(wild-type MDCK)
(§5) This ratio illustrates the effect of the over-expressed MDR1 normalised for the background movement of compound through the wild-type cells.
(§6) Lucifer Yellow (LY) was added to the apical buffer in all wells to assess viability of the cell layer. Compound recovery from the wells was determined from MS responses (normalized to internal standard) in donor and acceptor chambers at the end of incubation compared to response in the donor chamber pre-incubation.

[4] = as above; assay type: in vitro ADME; settings: dog, MDCK, pH 7.4, Papp AB WT
Method: as §1, §2, §3, §4, §5, §6

MDR1-MDCK cells = assay: MDR1-MDCK effective efflux assay (Transwell, 10 μM, 1 hour), MDR1-MDCK cells; assay type: in vitro ADME; settings: MDCK-MDR1
Method: as §1, §2, §3, §4, §5, §6

MDR1 (P-glycoprotein) = assay: as above; assay type: in vitro ADME; settings: dog, MDCK-MDR1, pH 7.4, Papp AB MDR1
Method: as §1, §2, §3, §4, §5, §6

Sequence of human Arginine Vasopressin Receptor 1a (AVPR1a) (P37288 whole entry): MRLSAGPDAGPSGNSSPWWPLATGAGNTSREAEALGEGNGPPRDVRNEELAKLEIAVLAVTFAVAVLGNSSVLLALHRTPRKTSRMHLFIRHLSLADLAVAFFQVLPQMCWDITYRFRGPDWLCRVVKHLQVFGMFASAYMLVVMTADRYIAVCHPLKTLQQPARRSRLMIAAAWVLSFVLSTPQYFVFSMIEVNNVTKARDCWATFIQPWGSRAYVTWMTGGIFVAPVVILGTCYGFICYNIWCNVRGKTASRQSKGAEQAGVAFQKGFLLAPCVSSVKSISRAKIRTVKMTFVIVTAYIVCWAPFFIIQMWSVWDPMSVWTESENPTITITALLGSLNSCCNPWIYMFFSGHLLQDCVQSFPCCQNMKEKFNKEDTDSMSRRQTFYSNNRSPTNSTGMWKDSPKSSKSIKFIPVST
Sequence of human Oxytocin Receptor (hOTR) (P30559 whole entry): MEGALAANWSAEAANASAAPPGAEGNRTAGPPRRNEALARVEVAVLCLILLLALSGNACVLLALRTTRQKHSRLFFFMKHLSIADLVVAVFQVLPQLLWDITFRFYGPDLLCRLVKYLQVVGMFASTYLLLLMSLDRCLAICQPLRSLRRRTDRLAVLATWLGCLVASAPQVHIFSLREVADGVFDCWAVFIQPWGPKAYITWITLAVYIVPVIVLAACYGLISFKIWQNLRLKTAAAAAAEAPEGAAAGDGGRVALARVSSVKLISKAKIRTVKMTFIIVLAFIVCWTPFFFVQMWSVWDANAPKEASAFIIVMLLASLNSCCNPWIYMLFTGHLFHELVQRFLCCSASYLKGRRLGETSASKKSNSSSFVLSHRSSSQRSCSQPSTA

SMILES	pIC50 [1]	pIC50 [2]	WT ER [3]	Papp A→B at 1 h, 10 μM [4] [×10⁻⁶ cm/s]	MDR1 EER (MDR1-MDCK cells)	MDR1 ER (MDR1-MDCK cells)	Papp A→B at 1 h, 10 μM (MDR1 (P-glycoprotein)) [×10⁻⁶ cm/s]
CCC(=O)N1Cc2cc(Cl)ccc2-n2c(nnc2C2CC3(C2)CN(C(=O)C2CC2)C3)C1 [compound 16]	< 6.00	> 7.00	+	< 7	++	+	< 7
CN1Cc2cc(Cl)ccc2-n2c(nnc2C2CC3(C2)CN(C(=O)C2(F)CC2)C3)C1 [compound 36]	–	> 7.00	++	10 to 20	+	+	< 7
O=C(C1CC1)N1Cc2cc(Cl)ccc2-n2c(nnc2C2CC3(C2)CN(c2ccccn2)C3)C1 [compound 65]	< 6.00	> 7.00	++++	> 20	+	+	< 7
CC(=O)N1Cc2cc(Cl)ccc2-n2c(nnc2C2CC3(C2)CN(c2ccccn2)C3)C1 [compound 73]	< 6.00	> 7.00	+	10 to 20	+	+	< 7
O=C(C1CC1)N1Cc2cc(Cl)ccc2-n2c(nnc2C2CC3(C2)CN(c2ccc(F)cn2)C3)C1 [compound 74]	< 6.00	> 7.00	+++	> 20	+	+	< 7
COC(=O)N1Cc2cc(Cl)ccc2-n2c(nnc2C2CC3(C2)CN(c2ncc(F)cn2)C3)C1 [compound 92]	< 6.00	> 7.00	+++	> 20	+	+	7 to 10
CC(=O)N1Cc2cc(Cl)ccc2-n2c(nnc2C2CC3(C2)CN(c2cnccn2)C3)C1 [compound 93]	< 6.00	> 7.00	+	< 7	+	+	< 7
CC(=O)N1Cc2cc(Cl)ccc2-n2c(nnc2C2CC3(C2)CN(c2cccc(C#N)n2)C3)C1 [compound 94]	< 6.00	> 7.00	+	10 to 20	+	+	< 7
CCC(=O)N1Cc2cc(Cl)ccc2-n2c(nnc2C2CC3(C2)CN(c2ncccn2)C3)C1 [compound 107, 1-(8-chloro-1-(2-(pyrimidin-2-yl)-2-azaspiro[3.3]heptan-6-yl)-4H-benzo[f][1,2,4]triazolo[4,3-a][1,4]diazepin-5(6H)-yl)propan-1-one]	< 6.00	> 7.00	+	10 to 20	+	+	< 7
COC(=O)N1Cc2cc(Cl)ccc2-n2c(nnc2C2CC3(C2)CN(c2cccc(C)n2)C3)C1 [compound 115]	–	> 7.00	+++	> 20	+	+	10 to 20
O=C(C1CC1)N1CC2(CC(c3nnc4n3-c3ccc(Cl)cc3CN(C(=O)C(F)(F)F)C4)C2)C1 [compound 137]	–	> 7.00	+	< 7	+	+	< 7
CC(C)OC(=O)N1Cc2cc(Cl)ccc2-n2c(nnc2C2CC3(C2)CN(C(=O)C2(F)CC2)C3)C1 [compound 147]	–	> 7.00	+	< 7	+	+	< 7
O=C(C1COC1)N1Cc2cc(Cl)ccc2-n2c(nnc2C2CC3(C2)CN(c2ccc(F)cn2)C3)C1 [compound 160]	–	> 7.00	+	< 7	+	+	< 7
COC(=O)N1Cc2cc(Cl)ccc2-n2c(nnc2C2CC3(C2)CN(C(=O)C2CC2)C3)C1 [compound 162]	–	> 7.00	+	< 7	+	+	< 7
CC(C)OC(=O)N1Cc2cc(Cl)ccc2-n2c(C3CC4(C3)CN(c3ccc(F)cn3)C4)nnc2C1C (centres unmarked) [compound 163]	–	> 7.00	++++	> 20	+++	+++	> 20
CC1c2nnc(C3CC4(C3)CN(c3ccc(F)cn3)C4)n2-c2ccc(Cl)cc2CN1C(=O)C(F)F (centres unmarked) [compound 176]	–	> 7.00	++++	> 20	+	+	7 to 10
CC1c2nnc(C3CC4(C3)CN(c3ccc(F)cn3)C4)n2-c2ccc(Cl)cc2CN1C (centres unmarked) [compound 179]	–	6.30 to 7.00	+++	> 20	++	+	> 20
CC(C)OC(=O)N1Cc2cc(Cl)ccc2-n2c(C3CC4(C3)CN(c3ccncn3)C4)nnc2C1C (centres unmarked) [compound 187]	–	6.30 to 7.00	++++	> 20	–	++	> 20
CC1c2nnc(C3CC4(C3)CN(c3ncc(F)cn3)C4)n2-c2ccc(Cl)cc2CN1C(=O)OC1CC1 (centres unmarked) [compound 192]	–	> 7.00	+++	> 20	+++	+++	> 20
CC1c2nnc(C3CC4(C3)CN(c3ncccn3)C4)n2-c2ccc(Cl)cc2CN1C(=O)OC(CF)CF (centres unmarked) [compound 202]	–	–	++++	> 20	+	+	< 7
CC1c2nnc(C3CC4(C3)CN(c3ccc(F)cn3)C4)n2-c2ccc(Cl)cc2CN1C(=O)OC(CF)CF (centres unmarked) [compound 203]	–	–	+++	> 20	+++	++	10 to 20
